# Results taken from US10689378B2, “Triazolopyridine compounds and uses thereof” (Novartis AG, priority 2016, dated 2020).
# Experiments:
# [1] = target: T1, EED (1-441)-His protein (Homo sapiens, UniProt O75530); test: EED-H3K27Me3 peptide competition binding assay by AlphaScreen; details: EED-H3K27Me3 peptide competition, AlphaScreen; read-out: (a) IC50 EED Alphascreen binding Qualified
# T1 construct: 30 nM EED (1-441)-His protein
# Method in brief: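 Serially diluted compound (12 points, 3-fold) incubated 20 min with 30 nM EED(1-441)-His and 15 nM biotin-H3K27Me3(19-33) peptide in 25 mM HEPES pH 8, 0.02% Tween-20, 0.5% BSA. Ni-chelate acceptor/streptavidin donor beads (10 μg/mL each) added, 1 h rt dark; 615 nm emission normalized to controls, dose-response fit for IC50.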
# [2] = target: wild type PRC2 (wtPRC2) complex (Homo sapiens, UniProt O75530); test: EED LC-MS assay (SAH production by PRC2); type: biochemical; details: PRC2 LC-MS assay; read-out: (b) IC50 EED LC-MS Qualified
# Method in brief: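 LC-MS/MS readout of SAH (d4-SAH standard) after TFA quench gives PRC2 activity, normalized to controls and fitted to dose-response for IC50. Reaction: 12 nM EZH2/SUZ12/EED/Rbap48/AEBP complex, 1 μM SAM, 1.5 μM H3[21-44] peptide, 120 min rt, 20 min compound preincubation.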
# [3] = tested on: H3K27 methylation in G401 cell; test: ELISA (H3K27 methylation) assay in G401 cells; type: cell-based, human; details: Homo sapiens, G-401, H3K27 methylation ELISA, read-out: (c) IC50 ELISA Qualified
# Method in brief: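 IC50 from dose-response fit of percent inhibition relative to DMSO, using H3K27me3/me2 ELISA signal (ECL) normalized to histone H3. Histones HCl-extracted after 48 h compound exposure of G401 cells at up to 20 μM, 8- or 12-point 3-fold series.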
# Sequence of wild type PRC2 (wtPRC2) complex (O75530 whole entry): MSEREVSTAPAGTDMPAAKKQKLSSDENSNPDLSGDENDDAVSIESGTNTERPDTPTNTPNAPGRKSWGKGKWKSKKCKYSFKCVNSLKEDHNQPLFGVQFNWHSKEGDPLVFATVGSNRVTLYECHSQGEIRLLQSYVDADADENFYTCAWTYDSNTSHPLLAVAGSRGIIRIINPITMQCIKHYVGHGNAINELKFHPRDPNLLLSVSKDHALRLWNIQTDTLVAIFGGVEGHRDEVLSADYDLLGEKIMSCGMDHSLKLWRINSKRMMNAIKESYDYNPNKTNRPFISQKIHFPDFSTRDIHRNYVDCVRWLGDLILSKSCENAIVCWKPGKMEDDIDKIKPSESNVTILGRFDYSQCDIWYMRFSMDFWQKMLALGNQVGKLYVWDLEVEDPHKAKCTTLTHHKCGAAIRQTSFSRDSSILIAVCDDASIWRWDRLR
# Sequence of wild type PRC2 (wtPRC2) complex (Q15910 whole entry partner): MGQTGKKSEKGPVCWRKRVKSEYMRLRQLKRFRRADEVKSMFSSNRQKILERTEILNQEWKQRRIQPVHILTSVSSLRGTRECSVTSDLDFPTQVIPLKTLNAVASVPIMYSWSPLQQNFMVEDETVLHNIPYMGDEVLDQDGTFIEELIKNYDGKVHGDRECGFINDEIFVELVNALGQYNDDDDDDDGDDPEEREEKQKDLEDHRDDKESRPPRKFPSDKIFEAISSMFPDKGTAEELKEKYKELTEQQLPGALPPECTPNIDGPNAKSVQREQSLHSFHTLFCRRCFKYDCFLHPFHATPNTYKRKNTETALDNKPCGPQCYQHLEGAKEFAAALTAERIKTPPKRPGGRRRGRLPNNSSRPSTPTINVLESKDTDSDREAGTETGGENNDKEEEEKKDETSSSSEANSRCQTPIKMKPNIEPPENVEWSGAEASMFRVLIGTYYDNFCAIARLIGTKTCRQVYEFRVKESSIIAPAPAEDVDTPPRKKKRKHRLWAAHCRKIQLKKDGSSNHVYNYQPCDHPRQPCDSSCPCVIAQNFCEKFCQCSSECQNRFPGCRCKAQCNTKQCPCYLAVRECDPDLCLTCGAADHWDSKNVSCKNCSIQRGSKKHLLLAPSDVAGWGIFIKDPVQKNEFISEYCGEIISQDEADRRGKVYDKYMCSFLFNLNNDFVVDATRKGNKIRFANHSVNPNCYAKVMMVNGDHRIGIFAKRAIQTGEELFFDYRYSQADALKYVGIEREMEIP
# Sequence of wild type PRC2 (wtPRC2) complex (Q15022 whole entry partner): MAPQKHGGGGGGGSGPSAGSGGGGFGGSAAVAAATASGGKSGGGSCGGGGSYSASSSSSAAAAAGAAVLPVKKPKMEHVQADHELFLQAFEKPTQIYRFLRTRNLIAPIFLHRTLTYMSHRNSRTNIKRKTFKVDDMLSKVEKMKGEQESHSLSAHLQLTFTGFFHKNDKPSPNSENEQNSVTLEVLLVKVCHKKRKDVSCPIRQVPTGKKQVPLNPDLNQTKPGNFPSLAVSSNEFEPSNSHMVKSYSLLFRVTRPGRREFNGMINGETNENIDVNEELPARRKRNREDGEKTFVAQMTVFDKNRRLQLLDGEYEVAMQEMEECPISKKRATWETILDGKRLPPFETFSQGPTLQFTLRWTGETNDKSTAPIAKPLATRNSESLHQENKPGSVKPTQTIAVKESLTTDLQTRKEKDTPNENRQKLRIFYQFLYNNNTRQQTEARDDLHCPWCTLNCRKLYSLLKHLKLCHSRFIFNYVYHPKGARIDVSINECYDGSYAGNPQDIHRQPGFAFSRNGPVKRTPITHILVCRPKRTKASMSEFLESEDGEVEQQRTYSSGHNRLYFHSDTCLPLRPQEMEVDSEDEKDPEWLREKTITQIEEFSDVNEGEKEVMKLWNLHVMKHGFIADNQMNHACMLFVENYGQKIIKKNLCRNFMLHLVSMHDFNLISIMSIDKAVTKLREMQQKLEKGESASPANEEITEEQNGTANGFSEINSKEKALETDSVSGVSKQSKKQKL
# Sequence of wild type PRC2 (wtPRC2) complex (Q09028 whole entry partner): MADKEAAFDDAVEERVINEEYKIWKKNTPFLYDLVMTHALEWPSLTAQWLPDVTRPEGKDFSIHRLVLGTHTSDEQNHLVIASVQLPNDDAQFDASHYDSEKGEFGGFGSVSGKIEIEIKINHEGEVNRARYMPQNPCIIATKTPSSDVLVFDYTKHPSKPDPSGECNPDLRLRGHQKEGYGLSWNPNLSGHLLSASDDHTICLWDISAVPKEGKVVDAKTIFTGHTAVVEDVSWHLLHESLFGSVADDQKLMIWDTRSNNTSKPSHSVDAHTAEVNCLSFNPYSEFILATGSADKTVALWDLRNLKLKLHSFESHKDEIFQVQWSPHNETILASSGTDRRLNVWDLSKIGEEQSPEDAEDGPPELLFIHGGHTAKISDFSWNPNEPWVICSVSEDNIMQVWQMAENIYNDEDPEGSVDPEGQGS
# Sequence of wild type PRC2 (wtPRC2) complex (Q6ZN18 whole entry partner): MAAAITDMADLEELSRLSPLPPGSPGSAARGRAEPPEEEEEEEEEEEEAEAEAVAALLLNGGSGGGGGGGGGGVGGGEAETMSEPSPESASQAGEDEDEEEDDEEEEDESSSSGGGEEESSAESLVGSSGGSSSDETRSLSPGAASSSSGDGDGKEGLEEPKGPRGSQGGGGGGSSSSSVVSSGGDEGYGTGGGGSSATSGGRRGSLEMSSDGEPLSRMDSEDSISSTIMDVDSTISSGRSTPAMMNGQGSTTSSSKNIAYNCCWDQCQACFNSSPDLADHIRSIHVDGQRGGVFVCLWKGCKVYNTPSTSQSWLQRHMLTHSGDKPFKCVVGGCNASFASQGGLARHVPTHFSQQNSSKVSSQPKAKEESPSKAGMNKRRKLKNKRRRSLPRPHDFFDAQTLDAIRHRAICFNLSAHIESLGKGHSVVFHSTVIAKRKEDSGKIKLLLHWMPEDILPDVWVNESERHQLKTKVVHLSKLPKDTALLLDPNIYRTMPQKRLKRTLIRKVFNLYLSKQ
# T1 sequence (O75530 whole entry): as the sequence (O75530 whole entry) above
IC50 [1] [nM],IC50 [2] [nM],IC50 [3] [nM],SMILES
42.4,165,61.9,"COc1cccc(F)c1CNc1ccc(-c2cnn(C3CC3)c2)c2nncn12 [Example 210, 8-(1-cyclopropyl-1H-pyrazol-4-yl)-N-(2-fluoro-6-methoxybenzyl)-[1,2,4] triazolo[4,3-a]pyridin-5-amine]"
18,75.6,22.6,"COc1cccc(F)c1CNc1ccc(-c2cnn(C3CCOCC3)c2)c2nncn12 [Example 212, N-(2-fluoro-6-methoxybenzyl)-8-(1-(tetrahydro-2H-pyran-4-yl)-1H-pyrazol-4-yl)-[1,2,4]triazolo[4,3-a] pyridin-5-amine]"
20.5,20,16.5,"COc1cccc(F)c1CNc1ccc(-c2cccnc2Cl)c2nncn12 [Example 213, 8-(2-chloropyridin-3-yl)-N-(2-fluoro-6-methoxybenzyl)-[1,2,4]triazolo[4,3-a]pyridin-5-amine]"
55.2,965,62.7,"CO/N=C(\C)c1ccc(-c2ccc(NCc3c(F)cccc3OC)n3cnnc23)cn1 [Example 214, (E)-1-(5-(5-((2-fluoro-6-methoxybenzyl)amino)-[1,2,4]triazolo[4,3-a]pyridin-8-yl)pyridin-2-yl)ethanone O-methyl oxime]"
20,150,55,"COc1cccc(F)c1CNc1ccc(-c2ccc(N3CCCC3=O)nc2)c2nncn12 [Example 215, 1-(5-(5-((2-fluoro-6-methoxybenzyl)amino)-[1,2,4]triazolo[4,3-a]pyridin-8-yl)pyridin-2-yl)pyrrolidin-2-one]"
33,449,25.5,"COc1cccc(F)c1CNc1ccc(-c2cncc(C(C)(C)O)c2)c2nncn12 [Example 216, 2-(5-(5-((2-fluoro-6-methoxybenzyl)amino)-[1,2,4]triazolo[4,3-a]pyridin-8-yl)pyridin-3-yl)propan-2-ol]"
34.3,946,25,"CNC(=O)Cc1cncc(-c2ccc(NCc3c(F)cccc3OC)n3cnnc23)c1 [Example 217, 2-(5-(5-((2-fluoro-6-methoxybenzyl)amino)-[1,2,4]triazolo[4,3-a]pyridin-8-yl)pyridin-3-yl)-N-methyl acetamide]"
38.3,79.5,42,"COc1cccc(F)c1CNc1ccc(-c2c(C)ccnc2F)c2nncn12 [Example 218, 8-(2-fluoro-4-methylpyridin-3-yl)-N-(2-fluoro-6-methoxybenzyl)-[1,2,4]triazolo[4,3-a] pyridin-5-amine]"
29.1,213,26.7,"COc1cccc(F)c1CNc1ccc(-c2cncc(F)c2C)c2nncn12 [Example 219, 8-(5-fluoro-4-methylpyridin-3-yl)-N-(2-fluoro-6-methoxybenzyl)-[1,2,4]triazolo[4,3-a] pyridin-5-amine]"
46,142,55.6,"COc1cc(F)cc(F)c1CNc1ccc(-c2cccnc2)c2nncn12 [Example 220, N-(2,4-difluoro-6-methoxybenzyl)-8-(pyridin-3-yl)-[1,2,4]triazolo[4,3-a]pyridin-5-amine]"
21.6,14.9,12.1,"COc1cccc(F)c1CNc1ccc(-c2cncnc2C)c2nncn12 [Example 221, N-(2-fluoro-6-methoxybenzyl)-8-(4-methylpyrimidin-5-yl)-[1,2,4] triazolo[4,3-a]pyridin-5-amine]"
9.9,122,9.9,"COc1cccc(F)c1CNc1ccc(-c2ccc(F)nc2C)c2nncn12 [Example 222, 8-(6-fluoro-2-methylpyridin-3-yl)-N-(2-fluoro-6-methoxybenzyl)-[1,2,4]triazolo[4,3-a] pyridin-5-amine]"

# Further lines, the compound ahead of its results:
SMILES,IC50 [1] [nM],IC50 [2] [nM],IC50 [3] [nM]
"COc1cccc(F)c1CNc1ccc(-c2c(C)n[nH]c2C)c2nncn12 [Example 187, 8-(3,5-dimethyl-1H-pyrazol-4-yl)-N-(2-fluoro-6-methoxybenzyl)-[1,2,4]triazolo[4,3-a] pyridin-5-amine]",41.6,172,52.8
"COc1cccc(F)c1CNc1ccc(-c2cnn(C)c2C)c2nncn12 [Example 188, 8-(1,5-dimethyl-1H-pyrazol-4-yl)-N-(2-fluoro-6-methoxybenzyl)-[1,2,4]triazolo[4,3-a] pyridin-5-amine]",55.2,93.1,34.8
"COc1cccc(F)c1CNc1ccc(-c2c[nH]nc2C)c2nncn12 [Example 189, N-(2-fluoro-6-methoxybenzyl)-8-(3-methyl-1H-pyrazol-4-yl)-[1,2,4] triazolo[4,3-a]pyridin-5-amine]",53.6,71.1,56.4
"COc1ccncc1-c1ccc(NCc2c(F)cccc2OC)n2cnnc12 [Example 190, N-(2-fluoro-6-methoxybenzyl)-8-(4-methoxypyridin-3-yl)-[1,2,4] triazolo[4,3-a]pyridin-5-amine]",41.5,240,13.1
"COc1cccc(F)c1CNc1ccc(-c2ccccc2Cl)c2nncn12 [Example 192, 8-(2-chlorophenyl)-N-(2-fluoro-6-methoxybenzyl)-[1,2,4]triazolo[4,3-a]pyridin-5-amine]",88.8,348,118
"COc1cccc(F)c1CNc1ccc(-c2ccc(C(=O)N(C)C)nc2)c2nncn12 [Example 194, 5-(5-((2-fluoro-6-methoxybenzyl)amino)-[1,2,4]triazolo[4,3-a]pyridin-8-yl)-N,N-dimethylpicolinamide]",16.5,49.4,6.3
"COc1cccc(F)c1CNc1ccc(-c2cncc(C(=O)N(C)C)c2)c2nncn12 [Example 195, 5-(5-((2-fluoro-6-methoxybenzyl)amino)-[1,2,4]triazolo[4,3-a]pyridin-8-yl)-N,N-dimethylnicotinamide]",17.6,61.3,8
"COc1cccc(F)c1CNc1ccc(-c2ccc(NC(C)=O)nc2)c2nncn12 [Example 196, N-(5-(5-((2-fluoro-6-methoxybenzyl)amino)-[1,2,4]triazolo[4,3-a]pyridin-8-yl)pyridin-2-yl)acetamide]",25.3,164,43.8
"COc1cccc(F)c1CNc1ccc(-c2cncc(OCCCS(C)(=O)=O)c2)c2nncn12 [Example 198, N-(2-fluoro-6-methoxybenzyl)-8-(5-(3-(methylsulfonyl)propoxy)pyridin-3-yl)-[1,2,4]triazolo [4,3-a]pyridin-5-amine]",34.5,235,32
"COc1cccc(F)c1CNc1ccc(-c2cncc(C3=NC(C)(C)CO3)c2)c2nncn12 [Example 199, 8-(5-(4,4-dimethyl-4,5-dihydrooxazol-2-yl)pyridin-3-yl)-N-(2-fluoro-6-methoxybenzyl)-[1,2,4]triazolo[4,3-a] pyridin-5-amine]",23.7,328,31.3
"COc1cccc(F)c1CNc1ccc(-c2cc(F)c(N)c(F)c2)c2nncn12 [Example 200, 8-(4-amino-3,5-difluorophenyl)-N-(2-fluoro-6-methoxybenzyl)-[1,2,4] triazolo[4,3-a]pyridin-5-amine]",71.1,225,110
"COc1cccc(F)c1CNc1ccc(-c2ccc(F)cc2C)c2nncn12 [Example 201, 8-(4-fluoro-2-methylphenyl)-N-(2-fluoro-6-methoxybenzyl)-[1,2,4]triazolo[4,3-a] pyridin-5-amine]",46.5,366,71.7
"COCc1cncc(-c2ccc(NCc3c(F)cccc3OC)n3cnnc23)c1 [Example 203, N-(2-fluoro-6-methoxybenzyl)-8-(5-(methoxymethyl)pyridin-3-yl)-[1,2,4]triazolo[4,3-a] pyridin-5-amine]",53.8,73,38.7
"COc1cccc(F)c1CNc1ccc(-c2ccc(C(C)O)nc2)c2nncn12 (stereo not drawn) [Example 205, 1-(5-(5-((2-fluoro-6-methoxybenzyl)amino)-[1,2,4]triazolo[4,3-a]pyridin-8-yl)pyridin-2-yl)ethanol]",53.1,160,43.7
"COc1cccc(F)c1CNc1ccc(-c2ccc(C(=O)N(C)C)cc2)c2nncn12 [Example 206, 4-(5-((2-fluoro-6-methoxybenzyl)amino)-[1,2,4]triazolo[4,3-a]pyridin-8-yl)-N,N-dimethylbenzamide]",24,48,24.1
"COc1cccc(F)c1CNc1ccc(-c2cncc(O)c2)c2nncn12 [Example 207, 5-(5-((2-fluoro-6-methoxybenzyl)amino)-[1,2,4]triazolo[4,3-a]pyridin-8-yl) pyridin-3-ol]",24.9,467,74.8
